Experimental data reported in US6610646B2, “Enhanced duration fragrance delivery system having a non-distorted initial fragrance impression” (The Procter & Gamble Company, priority 2000, dated 2003).

What was measured:
[1] = Olfactory Intensity grading of solutions in DPG by expert panel, Initial Determination; set-up: species or system human
Excerpt: (§1) To determine the ODC and the OSC for a given fragrance raw material f, an Olfactory Intensity vs. Log Concentration curve is constructed. This process is comprised of both an initial and a final determination.
Olfactory Intensity is graded for each solution from 0 to 100 by a panel of at least three expert graders composed of average artisans of ordinary skill in perfume formulation. The Olfactory Intensity at any concentration is taken to be the mean of the individual grades at that concentration. Table I below gives Olfactory Intensity grades determined in this manner for two common fragrance raw materials at three different weight percent concentration in DPG.
The Initial Determination gives the general shape of the curve and is used to establish which of the nine concentrations (Entries 1-9 in Table II) will be used for the starting fragrance raw material concentration, [f]start, and which will be used for the upper concentration limit, [f]limit, in the Final Determination. The highest concentration of fragrance raw material that gives an Olfactory Intensity below 5 is chosen as the starting concentration for the Final Determination. In the example given, [f]start is 0.00001 wt. % of 2,6-dimethyl-5-heptenal in DPG (Table II, Entry 3). The lowest concentration of fragrance raw material above [f]start for which the Olfactory Intensity of the two immediately adjacent concentrations are separated by less than 5 is chosen as the upper concentration limit for the Final Determination. In the example given, [f]limit is 0.10 wt. % of 2,6-dimethyl-5-heptenal in DPG (Table II, Entry 7).

[2] = Olfactory Intensity grading of solutions in DPG by expert panel, Final Determination (ODC and OSC); set-up: species or system human; conditions: for Olfactory Intensity: Final Determination, scale 0 to 100
Excerpt: Odor Detection Concentration, vD: The odor detection concentration (ODC) is defined herein as the lowest weight percent concentration of a fragrance raw material dissolved in dipropylene glycol (DPG) at which the average artisan of ordinary skill in perfume formulation can detect a fragrance raw material olfactory intensity of 10 on a scale of intensity ranging from 0 to 100.
Odor Saturation Concentration, vS: The odor saturation concentration (OSC) is defined herein as the amount of fragrance raw material, expressed as weight percent dissolved in DPG, beyond which no further odor impression is provided as measured by the average artisan of ordinary skill in perfume formulation.
as §1
Final Determination: In constructing the final curve, multiples of said starting concentration are used. The concentrations used are the starting concentration, [f]start=1c, and the multiples 5c, 10c, 20c, 40c, 80c, 160c, 320c, 640c, 1280c, 2560c, 5120c, 1024c, 2048c, 4096c, etc., up to and including the point where the multiple first surpasses [f]limit. Olfactory Intensity is graded for each solution from 0 to 100 by a panel of at least three expert graders composed of average artisans of ordinary skill in perfume formulation. The Olfactory Intensity at any concentration is taken to be the mean of the individual grades at that concentration.
The Final Determination yields values for the ODC and the OSC. The odor detection concentration (ODC) is defined herein as the lowest weight percent concentration, above [f]start, of a fragrance raw material dissolved in dipropylene glycol (DPG) at which the fragrance raw material olfactory intensity is 10 on a scale of intensity ranging from 0 to 100. The determination may require linear interpolation between two consecutive concentrations where one has an olfactory intensity below 10 and the other above 10. For 2,6-dimethyl-5-heptenal, the ODC as determined above is 0.0001 wt. % (Table III, Entry 3). The odor saturation concentration (OSC) is defined as the lowest concentration of a fragrance raw material above the ODC for which the Olfactory Intensity of the two immediately adjacent concentrations are separated by less than 5. For 2,6-dimethyl-5-heptenal, the OSC as determined above is 0.0256 wt. % (Table III, Entry 11).

[3] = 0.0005 wt. % in DPG, scale 0 to 100, mean of panel grades

CC1=CC(C)C(C=O)CC1 (stereo not drawn) [2,4-dimethyl-3-cyclohexene-1-carboxaldehyde]
Olfactory Intensity [1, 3]: 30
Olfactory Intensity ([1]; 0.001 wt. % in DPG, scale 0 to 100, mean of panel grades): 50
Olfactory Intensity ([1]; 0.003 wt. % in DPG, scale 0 to 100, mean of panel grades): 70

CC(C)=CCCC(C)C=O (stereo not drawn) [2,6-dimethyl-5-heptenal]
Olfactory Intensity ([1]; Initial Determination, 0.0000001 wt. % in DPG, scale 0 to 100): 0
Olfactory Intensity ([1]; Initial Determination, 0.000001 wt. % in DPG, scale 0 to 100): 0
Olfactory Intensity ([1]; Initial Determination, 0.00001 wt. % in DPG, scale 0 to 100): 0
Olfactory Intensity ([1]; Initial Determination, 0.0001 wt. % in DPG, scale 0 to 100): 10
Olfactory Intensity ([1]; Initial Determination, 0.001 wt. % in DPG, scale 0 to 100): 55
Olfactory Intensity ([1]; Initial Determination, 0.01 wt. % in DPG, scale 0 to 100): 81
Olfactory Intensity ([1]; Initial Determination, 0.1 wt. % in DPG, scale 0 to 100): 83
Olfactory Intensity ([1]; Initial Determination, 1.0 wt. % in DPG, scale 0 to 100): 84
Olfactory Intensity ([1]; Initial Determination, 10.0 wt. % in DPG, scale 0 to 100): 84
Olfactory Intensity ([2]; 0.00001 wt. % in DPG): 0
Olfactory Intensity ([2]; 0.00005 wt. % in DPG): 6
Olfactory Intensity ([2]; 0.0001 wt. % in DPG): 10
Olfactory Intensity ([2]; 0.0002 wt. % in DPG): 19
Olfactory Intensity ([2]; 0.0004 wt. % in DPG): 33
Olfactory Intensity ([2]; 0.0008 wt. % in DPG): 50
Olfactory Intensity ([2]; 0.0016 wt. % in DPG): 64
Olfactory Intensity ([2]; 0.0032 wt. % in DPG): 74
Olfactory Intensity ([2]; 0.0064 wt. % in DPG): 78
Olfactory Intensity ([2]; 0.0128 wt. % in DPG): 81
Olfactory Intensity ([2]; 0.0256 wt. % in DPG): 83
Olfactory Intensity ([2]; 0.0512 wt. % in DPG): 83
Olfactory Intensity ([2]; 0.1024 wt. % in DPG): 84
odor saturation concentration (OSC) ([2]; lowest concentration in DPG above the ODC where intensities of the two adjacent concentrations differ by less than 5): 0.0256 wt. %
odor detection concentration (ODC) ([2]; lowest concentration in DPG with olfactory intensity 10 on a scale 0 to 100): 0.0001 wt. %

CC=CC(=O)C1C(C)C=CCC1(C)C (stereo not drawn) [1-(2,6,6-trimethyl-3-cyclohexen-1-yl)-2-buten-1-one]
Olfactory Intensity ([1]; 0.00004 wt. % in DPG, scale 0 to 100, mean of panel grades): 30
Olfactory Intensity ([1]; 0.00009 wt. % in DPG, scale 0 to 100, mean of panel grades): 50
Olfactory Intensity [1, 3]: 70
